Data published in patent US20100029949A1, “Activator for Peroxisome Proliferator Activated Receptor” (priority 2005, published 2010).

Key:
Type in all cases: cell-based
PPAR γ = target: T1, PPAR γ (Homo sapiens, UniProt P37231); experiment: GAL4-hPPAR γ (LBD) luciferase reporter transactivation in CV-1 cells; settings: test compound 10^−6 M, control Rosiglitazone 10^−5 M = 100%
T1 construct: A receptor expression plasmid (pSG5-GAL4-hPPAR α or γ or δ (LBD)); expressed in transfected cells; host or cells: CV-1 cells (ATCC)
T1 sequence (P37231 238-503 limits assumed): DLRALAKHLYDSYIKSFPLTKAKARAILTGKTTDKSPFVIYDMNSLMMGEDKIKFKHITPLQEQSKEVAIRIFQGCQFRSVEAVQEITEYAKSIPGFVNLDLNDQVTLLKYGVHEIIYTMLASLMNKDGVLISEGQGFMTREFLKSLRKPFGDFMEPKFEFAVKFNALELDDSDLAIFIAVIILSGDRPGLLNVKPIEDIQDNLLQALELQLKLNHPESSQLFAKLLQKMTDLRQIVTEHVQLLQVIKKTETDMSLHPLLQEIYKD
Procedure: (§1) A receptor expression plasmid (pSG5-GAL4-hPPAR α or γ or δ (LBD)), a luciferase expression plasmid (pUC8-MH100x-4-TK-Luc) and β-galactosidase expression plasmid (pCMX-β-GAL) (Kliewer, S. A., et. al., (1992) Nature, 358:771-774) are transfected into CV-1 cells (ATCC). After gene transfer utilizing a lipofection reagent DMRIE-C or Lipofectamin 2000 (Invitrogen), it is incubated for 42 hours in the presence of the test compound. Then, the luciferase activity and β-GAL activity are measured on the soluble cells. The luciferase activity is calibrated by the β-GAL activity. A relative ligand activity is calculated for each of the PPAR α, γ and δ under the following conditions: a relative activity of PPAR α is calculated in consideration of a luciferase activity (assigned to 100%) of cells treated with the compound GW-590735 (PPARα-selective agonist); a relative activity of PPAR γ is calculated in consideration of a luciferase activity (assigned to 100%) cells treated with Rosiglitazone; and a relative activity of PPAR δ is calculated in consideration of a luciferase activity (assigned to 100%) of cells treated with GW-501516. See the below-described Example 4.
(§2) The PPARδ activating effects of test compounds (compounds of Examples) were measured by the following method: […]
(§3) After gene transfer utilizing a lipofection reagent DMRIE-C or Lipofectamin 2000 (Invitrogen), it is incubated for approx. 40 hours in the presence of the test compound. Then, the luciferase activity and β-GAL activity are measured on the soluble cells. […] A relative ligand activity is calculated for each of the PPAR α, γ and δ under the following conditions: a relative activity of PPAR α is calculated in consideration of a luciferase activity (assigned to 100%) of cells treated with GW-590735 (PPARα-selective agonist); a relative activity of […] is calculated in consideration of a luciferase activity (assigned to 100%) cells treated with Rosiglitazone; and a relative activity of PPARδ is calculated in consideration of a luciferase activity (assigned to 100%) of cells treated with GW-501516.

PPAR δ = target: T2, PPAR δ (Homo sapiens, UniProt Q03181); experiment: GAL4-hPPAR δ (LBD) luciferase reporter transactivation in CV-1 cells; settings: test compound 10^−6 M, control GW-501516 10^−7 M = 100%
T2 construct: A receptor expression plasmid (pSG5-GAL4-hPPAR α or γ or δ (LBD)); expressed in transfected cells; host or cells: CV-1 cells (ATCC)
T2 sequence (Q03181 211-439 limits assumed): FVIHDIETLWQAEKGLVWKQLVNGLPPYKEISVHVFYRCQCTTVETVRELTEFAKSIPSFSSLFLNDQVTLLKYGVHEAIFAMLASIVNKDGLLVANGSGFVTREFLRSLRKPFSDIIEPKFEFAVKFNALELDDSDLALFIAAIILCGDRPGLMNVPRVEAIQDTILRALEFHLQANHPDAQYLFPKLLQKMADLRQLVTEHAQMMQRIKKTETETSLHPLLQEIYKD
Procedure: as §1, §2, §3

PPAR α = target: T3, PPAR α (Homo sapiens, UniProt Q07869); experiment: GAL4-hPPAR α (LBD) luciferase reporter transactivation in CV-1 cells; settings: test compound 10^−6 M, control GW-590735 10^−6 M = 100%
T3 construct: A receptor expression plasmid (pSG5-GAL4-hPPAR α or γ or δ (LBD)); expressed in transfected cells; host or cells: CV-1 cells (ATCC)
T3 sequence (Q07869 239-466 limits assumed): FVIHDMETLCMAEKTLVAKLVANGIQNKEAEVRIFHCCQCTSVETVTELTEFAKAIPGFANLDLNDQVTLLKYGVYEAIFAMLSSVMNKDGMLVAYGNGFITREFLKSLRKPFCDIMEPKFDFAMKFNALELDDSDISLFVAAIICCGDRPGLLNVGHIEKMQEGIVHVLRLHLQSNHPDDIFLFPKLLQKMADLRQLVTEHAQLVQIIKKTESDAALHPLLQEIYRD
Procedure: as §1, §2, §3

Compound | PPAR γ activity: relative value (%) of the test compound to 100% of the control compound (PPAR γ) [%] | PPAR δ activity: relative value (%) of the test compound to 100% of the control compound (PPAR δ) [%] | PPAR α activity: relative value (%) of the test compound to 100% of the control compound (PPAR α) [%]
Cc1cc2c(CCc3cn(-c4ccc(C(F)(F)F)cc4)nc3C(C)C)noc2cc1OC(C)(C)C(=O)O [Example 3, 2-[3-[2-[3-Isopropyl-1-(4-trifluoromethylphenyl)-1H-pyrazol-4-yl]ethyl]-5-methylbenzisoxazol-6-yloxy]-2-methylpropionic acid] | 0.3 | 87.8 | 0.2
Cc1cc2c(CCc3cc(-c4ccc(C(F)(F)F)cc4)nn3C(C)C)noc2cc1OC(C)(C)C(=O)O [Example 1, 2-[3-[2-[1-Isopropyl-3-(4-trifluoromethylphenyl)-1H-pyrazol-5-yl]ethyl]-5-methylbenzisoxazol-6-yloxy]-2-methylpropionic acid] | 5.4 | 84.7 | 62.7
Cc1cc2c(CCc3cc(-c4ccc(C(F)(F)F)cc4)nn3C(C)C)noc2cc1OCC(=O)O [Example 2, 3-[2-[1-Isopropyl-3-(4-trifluoromethylphenyl)-1H-pyrazol-5-yl]ethyl]-5-methylbenzisoxazol-6-yloxyacetic acid] | 13.4 | 94.4 | 103.0
